The text below walks through data of patent publication US11071735B2, “Treatment of inflammatory conditions and autoimmune diseases with glucose uptake inhibitors” (Kadmon Corporation, LLC, priority 2017, dated 2021).

Assay [1] concerns activated human CD4+ T cells. Description: one-hour glycolysis assay in activated human CD4 T cells. The assay is classed as cell-based. Particulars: human CD4 T cells activated 24 hours, one hour treatment plus oligomycin. As for the experimental part: In FIG. 2A, human CD4 positive T cells were activated for 24 hours prior to a one hour treatment with the indicated glucose uptake inhibitors combined with 10 μM oligomycin. In FIG. 2B, human CD4 T cells were activated for 48 hours in the presence of the glucose uptake inhibitors. IL-17 and IL-2 secreted into the supernatant was measured by ELISA (R&D systems). Proliferation was measured by Cell Titer Glo (Promega). FIG. 2C lists the IC50 values (μM) for the glucose uptake inhibitors against activated T cell glycolysis, IL-17 secretion and proliferation. […] In FIG. 3A, human CD4 positive T cells were activated for 24 hours prior to a one hour treatment with Bay876 combined with 1 μM oligomycin. In FIG. 3B, human CD4 T cells were activated for 48 hours in the presence of Bay876. L-17 secreted into the supernatant was measured by ELISA (R&D systems). Proliferation was measured by Cell Titer Glo (Promega). […] At this time, secreted IL-17, IL-2 and relative cell number were measured (FIG. 2B, right panel). […] Cells were exposed to the combination of 10 μM Oligomycin (to block mitochondrial-derived ATP) and the glucose uptake inhibitors disclosed herein for one-hour, after which glycolytically-derived ATP was measured with the Cell Titer-Glo assay kit (Promega). […] IL-17 levels were measured by ELISA (R&D systems, Human IL-17 Quantikine ELISA kit). Proliferation was measured by Cell Titer Glo (Promega). […]

Assay [2] has as its target T1, GLUT1 (Homo sapiens, UniProt P11166).
T1 construct: endogenous in cells; host or cells: DLD1 WT cancer cells
T1 sequence (P11166 1-492): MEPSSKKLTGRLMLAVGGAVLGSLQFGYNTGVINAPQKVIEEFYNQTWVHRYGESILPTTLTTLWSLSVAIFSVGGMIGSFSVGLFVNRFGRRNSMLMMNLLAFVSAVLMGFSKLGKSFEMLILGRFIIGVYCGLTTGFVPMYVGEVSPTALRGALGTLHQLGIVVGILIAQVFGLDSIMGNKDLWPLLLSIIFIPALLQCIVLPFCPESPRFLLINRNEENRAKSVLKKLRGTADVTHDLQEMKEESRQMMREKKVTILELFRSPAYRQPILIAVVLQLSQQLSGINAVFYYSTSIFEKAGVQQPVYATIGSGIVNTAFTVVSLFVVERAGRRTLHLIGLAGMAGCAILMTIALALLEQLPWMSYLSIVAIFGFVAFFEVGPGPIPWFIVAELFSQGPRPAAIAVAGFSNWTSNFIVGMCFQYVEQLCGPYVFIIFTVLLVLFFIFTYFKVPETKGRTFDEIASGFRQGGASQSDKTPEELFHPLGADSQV
The assay is described as follows: glycolysis assay in DLD1 WT cells (rely on GLUT1). The assay is classed as cell-based. Particulars: DLD1 WT versus DLD1 GLUT1−/− cells. In outline: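 Cells […] exposed for 1 h to inhibitor plus 10 μM oligomycin to block mitochondrial ATP; remaining glycolytic ATP read by CellTiter-Glo luminescence. IC50 derived from dose-response curves.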

With `Cc1c(NC(=O)c2cc(C(N)=O)nc3cc(F)ccc23)c(C(F)(F)F)nn1Cc1ccc(C#N)cc1` [Bay876], the “glycolysis in activated T cells” value in assay [1] was “neither inhibited glycolysis”. Further, the “GLUT selectivity (inhibition of glycolysis)” value in assay [2] was “selective for GLUT1”.
